Measured values taken from patent US8354414B2, “Substituted bicyclic pyrimidines” (Cephalon, Inc, priority 2006, dated 2013).

Experiments:
CDK5/GST-p25 = biological target: T1, CDK5/GST-p25 (Homo sapiens, UniProt Q00535); experiment: Inhibition of CDK5/GST-p25 kinase activity (ELISA with time-resolved fluorescence readout); assay type: biochemical
T1 construct: The final construct, encoding for full-length human CDK5; made in house; host or cells: Sf21 insect cells (baculovirus co-infection)
In short: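 The substrate, GST-Rb(773-928), was immobilised on plates and phosphorylated for 20 min at 37 °C by 2 ng/ml CDK5/GST-p25 in HEPES pH 7.2 with 10 µM ATP and 10 mM MgCl2. Both proteins were human and co-expressed in insect cells. Ser-780 phosphorylation was read by europium time-resolved fluorescence and converted to IC50.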

His6-GSK-3β = biological target: T2, His6-GSK-3β (Homo sapiens, UniProt P49841); experiment: Inhibition of His6-GSK-3β kinase activity (ELISA-based format, time-resolved fluorescence readout); assay type: biochemical; conditions: class symbols; read-out: GSK3β IC50
T2 construct: made in house; host or cells: Sf21 insect cells (baculovirus)
T2 sequence (P49841 2-419): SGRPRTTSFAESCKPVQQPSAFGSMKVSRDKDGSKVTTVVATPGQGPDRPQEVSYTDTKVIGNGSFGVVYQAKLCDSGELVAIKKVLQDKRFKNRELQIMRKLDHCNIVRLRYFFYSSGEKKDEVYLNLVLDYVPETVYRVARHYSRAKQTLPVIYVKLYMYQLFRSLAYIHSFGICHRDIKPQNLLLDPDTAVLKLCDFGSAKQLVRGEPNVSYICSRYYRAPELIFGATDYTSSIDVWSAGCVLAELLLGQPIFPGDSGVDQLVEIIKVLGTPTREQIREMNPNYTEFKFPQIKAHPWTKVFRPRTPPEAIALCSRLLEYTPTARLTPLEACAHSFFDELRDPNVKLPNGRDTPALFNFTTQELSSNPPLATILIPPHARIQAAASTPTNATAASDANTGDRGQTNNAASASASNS
In short: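 Plate-bound recombinant GST-Rb substrate was phosphorylated for 30 min at 37° C by baculovirus-expressed His6-GSK-3β (200 ng/ml) at 20 μM ATP, 10 mM MgCl2, 2.5% DMSO. Europium time-resolved fluorescence of anti-phospho-Ser780 Rb signal gave inhibition, fitted to IC50.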

T1 sequence (Q00535 whole entry): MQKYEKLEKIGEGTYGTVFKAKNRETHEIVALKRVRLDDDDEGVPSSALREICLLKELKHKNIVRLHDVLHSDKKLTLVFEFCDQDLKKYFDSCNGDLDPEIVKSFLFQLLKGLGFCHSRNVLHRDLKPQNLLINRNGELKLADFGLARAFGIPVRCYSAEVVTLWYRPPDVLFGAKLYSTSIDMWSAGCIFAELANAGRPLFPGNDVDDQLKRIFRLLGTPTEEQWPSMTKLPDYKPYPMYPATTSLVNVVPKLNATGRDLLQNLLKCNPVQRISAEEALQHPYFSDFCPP
T1 sequence (Q15078 108-307 partner limits assumed): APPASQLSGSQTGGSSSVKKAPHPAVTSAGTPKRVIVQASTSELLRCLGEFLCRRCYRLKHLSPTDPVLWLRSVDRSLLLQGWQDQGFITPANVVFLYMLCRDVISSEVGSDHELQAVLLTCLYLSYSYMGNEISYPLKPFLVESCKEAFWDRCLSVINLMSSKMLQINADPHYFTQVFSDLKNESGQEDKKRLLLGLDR

Row | IC50 (CDK5/GST-p25; class symbols) | IC50 (His6-GSK-3β) | melting point | inhibition at 10 µM (CDK5/GST-p25) | IC50 (CDK5/GST-p25; numeric bounds) | Compound
1 | < 300 nM | < 300 nM | 265 °C (dec.) |  |  | C=CCNc1nc(C2C(=O)Nc3ccc(C#N)cc32)c2cn(CCCCC)nc2n1 (stereo not drawn) [Example 293, 3-(6-Allylamino-2-pentyl-2H-pyrazolo[3,4-d]pyrimidin-4-yl)-2-oxo-2,3-dihydro-1H-indole-5-carbonitrile]
2 | < 300 nM | < 300 nM | 277 to 281 °C |  |  | CCCn1cc2c(C3C(=O)Nc4ccc(Br)cc43)nc(NCc3cccnc3)nc2n1 (stereo not drawn) [Example 196, 5-Bromo-3-{2-propyl-6-[(pyridin-3-ylmethyl)-amino]-2H-pyrazolo[3,4-d]pyrimidin-4-yl}-1,3-dihydro-indol-2-one]
3 | < 300 nM | 300 to 3000 nM | > 300 °C |  |  | C=CCn1cc2c(C3C(=O)Nc4ccc(C#N)cc43)ncnc2n1 (stereo not drawn) [Example 76, 3-(2-Allyl-2H-pyrazolo[3,4-d]pyrimidin-4-yl)-2-oxo-2,3-dihydro-1H-indole-5-carbonitrile]
4 | < 300 nM | 300 to 3000 nM | > 300 °C |  |  | CC(C)n1cc2c(C3C(=O)Nc4ccc(C#N)cc43)ncnc2n1 (stereo not drawn) [Example 382, 3-(2-Isopropyl-2H-pyrazolo[3,4-d]pyrimidin-4-yl)-2-oxo-2,3-dihydro-1H-indole-5-carbonitrile]
5 | > 10000 nM | > 10000 nM | > 300 °C |  |  | CCCn1ncc2c(C3C(=O)Nc4ccc(C#N)cc43)ncnc21 (stereo not drawn) [Example 93, 3-(1-propyl-1H-pyrazolo[3,4-d]pyrimidin-4-yl)-2-oxo-2,3-dihydro-1H-indole-5-carbonitrile]
6 | > 10000 nM | < 300 nM | > 300 °C |  |  | COCCn1cc2c(C3C(=O)Nc4ccc(Br)cc43)nc(Cl)nc2n1 (stereo not drawn) [Example 225, 5-Bromo-3-[6-chloro-2-(2-methoxy-ethyl)-2H-pyrazolo [3,4-d]pyrimidin-4-yl]-1,3-dihydro-indol-2-one]
7 | < 300 nM | < 300 nM | 319 to 322 °C (dec.) |  |  | O=C1Nc2ccc(Br)cc2C1c1ncnc2nn(C3CCCC3)cc12 (stereo not drawn) [Example 31, 5-Bromo-3-(2-Cyclopentyl-2H-pyrazolo[3,4-d]pyrimidin-4-yl)-2-oxo-1,3-dihydro-indol-2-one]
8 | > 10000 nM | 300 to 3000 nM | > 300 °C |  |  | O=C1Nc2ccc(C(F)(F)F)cc2C1c1ncnc2nn(C3CCCCC3)cc12 (stereo not drawn) [Example 53, 3-(2-Cyclohexyl-2H-pyrazolo [3,4-d]pyrimidin-4-yl)-5-trifluoromethyl-1,3-dihydro-indol-2-one]
9 | < 300 nM | 300 to 3000 nM | 288 to 292 °C |  |  | CCCn1cc2c(C3C(=O)Nc4ccc(F)cc43)ncnc2n1 (stereo not drawn) [Example 100]

Further lines, the molecule ahead of its results:

Row | Compound | IC50 (CDK5/GST-p25; class symbols) | IC50 (His6-GSK-3β) | melting point | inhibition at 10 µM (CDK5/GST-p25) | IC50 (CDK5/GST-p25; numeric bounds)
10 | O=C1Nc2c(cc([N+](=O)[O-])cc2[N+](=O)[O-])C1c1ncnc2nn(C3CCCC3)cc12 (stereo not drawn) [Example 43, 3-(2-Cyclopentyl-2H-pyrazolo[3,4-d]pyrimidin-4-yl)-5,7-dinitro-1,3-dihydro-indol-2-one] | 300 to 3000 nM | 300 to 3000 nM | > 300 °C |  | 
11 | CCOCCn1cc2c(C3C(=O)Nc4ccc(Cl)cc43)nc(NCCN3CCOCC3)nc2n1 (stereo not drawn) [Example 217, 5-Chloro-3-[2-(2-ethoxy-ethyl)-6-(2-morpholin-4-yl-ethylamino)-2H-pyrazolo [3,4-d]pyrimidin-4-yl]-1,3-dihydro-indol-2-one] | < 300 nM | < 300 nM | 293 to 294 °C |  | 
12 | COCCn1cc2c(C3C(=O)Nc4ccc(Br)cc43)nc(NCCCN(C)C)nc2n1 (stereo not drawn) [Example 233, 5-Bromo-3-[6-(3-dimethylamino-propylamino)-2-(2-methoxy-ethyl)-2H-pyrazolo [3,4-d]pyrimidin-4-yl]-1,3-dihydro-indol-2-one] | < 300 nM | < 300 nM | 297 to 298 °C |  | 
13 | O=C1Nc2ccccc2C1c1ncnc2nn(C3CCCC3)cc12 (stereo not drawn) [Example 37, 3-(2-Cyclopentyl-2H-pyrazolo[3,4-d]pyrimidin-4-yl)-1,3-dihydro-indo-2-one] | 300 to 3000 nM | 300 to 3000 nM | 289 to 292 °C |  | 
14 | N#Cc1ccc2c(c1)C(c1ncnc3c1cnn3C1CCCC1)C(=O)N2 (stereo not drawn) [Example 55, 3-(1-Cyclopentyl-1H-pyrazolo[3,4-d]pyrimidin-4-yl)-2-oxo-2,3-dihydro-1H-indole-5-carbonitrile] | > 10000 nM | 300 to 3000 nM | > 300 °C |  | 
15 | C[C@H](O)CNc1nc(C2C(=O)Nc3ccc(Cl)cc32)c2cn(C3CCCC3)nc2n1 (stereo partly drawn) [Example 374] |  | < 300 nM | > 300 °C | 56% | 
16 | O=C1Nc2ccc(C(F)(F)F)cc2C1c1ncnc2c1cnn2C1CCCCC1 (stereo not drawn) [Example 71, 3-(1-Cyclohexyl-1H-pyrazolo [3,4-d]pyrimidin-4-yl)-5-trifluoromethyl-1,3-dihydro-indol-2-one] | > 10000 nM | > 10000 nM | > 300 °C |  | 
17 | Cl.NCCCNc1nc(C2C(=O)Nc3ccc(C(F)(F)F)cc32)c2cn(C3CCCC3)nc2n1 (stereo not drawn) [Example 254, 3-[6-(3-Amino-propylamino)-2-cyclopentyl-2H-pyrazolo[3,4-d]pyrimidin-4-yl]-5-trifluoromethyl-1,3-dihydro-indol-2-one hydrochloride salt] | 300 to 3000 nM | < 300 nM | 304 to 306 °C |  | 
18 | CN(C)CCCNc1nc(C2C(=O)Nc3ccc(Br)cc32)c2cn(C)nc2n1 (stereo not drawn) [Example 307, 5-Bromo-3-[6-(3-dimethylamino-propylamino)-2-methyl-2H-pyrazolo[3,4-d]pyrimidin-4-yl]-1,3-dihydro-indol-2-one] | 300 to 3000 nM | 300 to 3000 nM | 310 to 312 °C (dec.) |  | 
19 | CNCCCNc1nc(C2C(=O)Nc3ccc(Br)cc32)c2cn(C3CCCC3)nc2n1.Cl (stereo not drawn) [Example 379, 5-Bromo-3-[2-cyclopentyl-6-(3-methylamino-propylamino)-2H-pyrazolo[3,4-d]pyrimidin-4-yl]-1,3-dihydro-indol-2-one hydrochloride salt] |  | < 300 nM | 208 to 211 °C |  | > 3000 nM
20 | O=C1Nc2ccc(C(F)(F)F)cc2C1c1nc(NCCc2cccnc2)nc2nn(C3CCCC3)cc12 (stereo not drawn) [Example 160, 3-[2-cyclopentyl-6-(2-pyridin-3-yl-ethylamino)-2H-pyrazolo[3,4-d]pyrimidin-4-yl]-5-trifluoromethyl-1,3-dihydro-indol-2-one] | > 10000 nM | < 300 nM | 278 to 280 °C |  | 
21 | CCCCCn1cc2c(C3C(=O)Nc4ccc(C#N)cc43)nc(NCc3ccncc3)nc2n1 (stereo not drawn) [Example 292, 2-Oxo-3-{2-pentyl-6-[(pyridin-4-ylmethyl)-amino]-2H-pyrazolo [3,4-d]pyrimidin-4-yl}-2,3-dihydro-1H-indole-5-carbonitrile] | < 300 nM | < 300 nM | 288 to 290 °C (dec.) |  | 
22 | O=c1[nH]c2ccccc2n1-c1ncnc2nn(C3CCCC3)cc12 [Example 44, 1-(2-Cyclopentyl-2H-pyrazolo[3,4-d]pyrimidin-4-yl)-1,3-dihydro-benzoimidazol-2-one] | > 10000 nM | > 10000 nM | 236 to 240 °C |  | 
